According to patent US4847290A, “Delta 1-thc-7-oic acid and analgesic and anti-inflammatory agents” (priority 1987, dated 1989):
“And” between values parts separate entries of the source, which are not always exact repeats. Identical values can stand only once. “Also recorded” adds a separate entry of the source. Like-named read-outs stand apart in the source and are kept apart here.

How the values were obtained:
[1] = humans; cited from earlier work
[2] = Mouse Carrageenan Edema Test; format: in vivo, mouse (Charles River CD-1, female); settings: 3 h after carrageenan; for Paw Volume (edema volume): ± S.D.
Description: The basic experimental procedure was adapted from Sophia et al., J. Pharma. Exper. Ther. 186:646, 1973. Charles Rivier CD-1 female mice (20-25 g) were given a dose of either Δ^1 -THC-7-oic-acid, indomethacin or vehicle (control). All compounds were administered orally in a 20 ul volume of peanut oil. One hour later, 0.05 ml of a 1% solution of calcium carrageenan in saline was injected subcutaneously into the plantar surface of the right hind paw. The volume of the injected foot to the level of the lateral malleolus was measured by water displacement immediately before oral drug administration and again three hours after carrageenan injection. The difference between the two measurements was called edema volume. The effectiveness of each compound was analyzed in the following manner. For Δ^1 -THC-7-oic-acid, the mean paw volumes, before and after the metabolite was administered, were statistically compared by one-way ANOVA (analysis of variance) and Fisher PLSD Scheffe t-tests. For indomethacin, the mean paw volumes, pre- and postdrug, were statistically compared using the student's t-test. The percent inhibition of edema volume was obtained from the ratio of the predrug volume to the postdrug volume (Table II).

Rat Ulcerogenicity Test = format: in vivo, rat (Charles River CD); settings: for Incidence (number of rats with lesions/total tested) / Mean Score of gastric mucosal lesions: stomach tube, 1 h; for Mean Score of gastric mucosal lesions: scale 0 (normal mucosa) to 3 (erosions longer than 5 mm or confluent hemorrhages)
Description: Experimental groups of 5-11 rats (Charles River CD) were fasted for 24 hours before the administration of either aspirin, Δ^1 -THC-7-oic-acid or indomethacin by a rubber stomach tube (Rusch No. 8). The animals were killed 1 hour later by carbon dioxide asphyxiation. At that time, 4 ml of 10% aqueous buffered formaldehyde (formalin) was injected directly into the stomach of each animal. This in situ intraluminal fixation with formalin was especially critical for the assessment of small gastric erosions induced by aspirin since the overlying hemorrhage could easily be removed by rinsing the unfixed stomach. After 5 minutes of in situ fixation, the stomach and proximal duodenum were removed, opened along the greater curvature, pinned on a cork with mucosa upward, and immersed in 10% formaldehyde until further processing (Szabo, S. et al, J. Pharmacol. Meth. 13:59-66, 1985). The gastric lesions were then evaluated by direct visual inspection.
For comparative purposes, a semiquantitative scale of 0-3 was used to assess the extent of gastric mucosal lesions (Scabo et al., 1981, 1983). According to this scale, a score of 0 indicates a normal mucosa; 1 represents the appearance of between 1 and 4 small petechiae; 2 indicates the presence of 5 or more petechiae or hemmorhagic streaks up to 4 mm in length; 3 represents the appearance of erosions longer than 5 mm or confluent hemorrhages.

prostaglandin synthesis = settings: metabolite added to culture medium prior to THC exposure; cited from earlier work
[3] = design: species or system mouse (Charles River CD-1); settings: mouse, in vivo
[4] = rhesus monkey; cited from earlier work
[5] = tested on: prostaglandin synthetase system; settings: variety of models; cited from earlier work

Row | Compound | behavioral activity and cardiovascular effects [1] | % Inhibition of Edema Volume ([2]; 20 mg/kg oral) [%] | Paw Volume (edema volume) ([2]; 20 mg/kg oral) [µL] | % Inhibition of Edema Volume ([2]; 40 mg/kg oral) [%] | Paw Volume (edema volume) ([2]; 40 mg/kg oral) [µL] | ulcer / gastric lesion formation (in words) (Rat Ulcerogenicity Test; 50 mg/kg, directly into the stomach) | Incidence (number of rats with lesions/total tested) (Rat Ulcerogenicity Test; 50 mg/kg) | Mean Score of gastric mucosal lesions (Rat Ulcerogenicity Test; 50 mg/kg) | antagonism of the stimulatory effect of THC on prostaglandin synthesis (prostaglandin synthesis) | analgesic (pain-relieving) effect / potency relative to naproxen ([3]; po) | behavioral activity and cardiovascular effects [4] | inhibition of the prostaglandin synthetase system [5] | gastric lesions / gastrointestinal damage (in words) (Rat Ulcerogenicity Test; 100 mg/kg, half the therapeutic dose, into the stomach) | Incidence (number of rats with lesions/total tested) (Rat Ulcerogenicity Test; 100 mg/kg) | Mean Score of gastric mucosal lesions (Rat Ulcerogenicity Test; 100 mg/kg) | Incidence (number of rats with lesions/total tested) (Rat Ulcerogenicity Test; 10 mg/kg) | Mean Score of gastric mucosal lesions (Rat Ulcerogenicity Test; 10 mg/kg) | Incidence (number of rats with lesions/total tested) (Rat Ulcerogenicity Test; 20 mg/kg) | Mean Score of gastric mucosal lesions (Rat Ulcerogenicity Test; 20 mg/kg) | Latency (percent change of the mean reaction time compared to predrug values) [3]
1 | CCCCCc1cc(O)c2c(c1)OC(C)(C)[C@@H]1CCC(C(=O)O)=CC21 (single isomer, unassigned) [Δ^1 -THC-7-oic-acid] | did not show the behavioral activity or the cardiovascular effects characteristic of the parent substance, THC | 53 | 9 ± 12 | 79 | 4 ± 13 | did not induce ulcer formation; also recorded: does not induce the formation of gastric lesions | 0/10 | 0.0 | dramatic lowering of the stimulatory effect of THC on prostaglandin synthesis | merely equivalent to that of naproxen; also recorded: exhibits analgesic activity with a potency similar to that of naproxen | did not show the behavioral activity or the cardiovascular effects characteristic of the parent substance, THC | potent inhibitor of the prostaglandin synthetase system | – | – | – | – | – | – | – | –
2 | CC(=O)Oc1ccccc1C(=O)O [Aspirin] | – | – | – | – | – | – | – | – | – | – | – | – | induced the formation of gastric lesions in each test animal; also recorded: each of the experimental animals experiences gastrointestinal damage | 10/10 | 1.9 | – | – | – | – | –
3 | COc1ccc2c(c1)c(CC(=O)O)c(C)n2C(=O)c1ccc(Cl)cc1 [Indomethacin, reference compound] | – | 100 | -13 ± 17 | – | – | – | – | – | – | – | – | – | – | – | – | 2/5 | 0.6 | 6/11 | 0.77 | 52.7 and 51.1
